Measurements taken from patent US7232846B2, “Amines as anti-alcoholism agents” (priority 2001, dated 2007).

How the values were obtained:
[1] = Assessment of the disulfiram-like adverse effect (blood acetaldehyde after ethanol injection); assay type: in vivo, rat; conditions: Wistar rats, single 2 mg/kg p.o. 1 h before ethanol, mean ± SEM
Protocol: Blood samples were taken from the tail of the rat at different times after the injection of the ethanol solution. […] The animals of the disulfiram group received two doses of 300 mg p.o. of disulfiram per kg of rat, 23 h and 17 h before the administration of ethanol. The high concentration of acetaldehyde detected in these groups was expected. […] The animals of the other four groups received a single dose p.o. of 2 mg of the corresponding compound (in the form of 10 mg/100 ml aqueous solutions, which was of the hydrochlorides in the case of polyamines) per kg of rat, 1 h before the administration of ethanol. Figures in the table are mean values (±SEM) of acetaldehyde concentration in blood at the indicated times. It is observed that values of the groups corresponding to the four tested compounds were only slightly above the control ones, but far below the corresponding values of the disulfiram group.

[2] = tested on: genetically-alcoholic rats (UChB strain); assay: Anti-alcoholism activity in genetically-alcoholic rats (consumption of 10% v/v alcohol); assay type: in vivo, rat; conditions: for Reduction percentage in the consumption of alcohol (10% v/v), treat.: first 6 h after starting the treatment, vs reference period; for Reduction percentage in the consumption of alcohol (10% v/v), post-treat.: first 6 h after having stopped a 3-day treatment
Source text: As an animal model of alcoholic humans, adult Wistar rats of both sexes, belonging to the UChB strain were used. This strain of rats is the result of a long selection at the University of Chile, and rats belonging to it are known to be volunteer consumers of 10% (v/v) aqueous alcohol (cf. J. Mardones and N. Segovia-Riquelme, “Thirty two years of selection of rats by ethanol preference”: UChA and UChB strains”, Neurobehav. Toxicol. and Teratol. 1983, vol. 5, pp. 171–178). Thus, the rats used in these experiments can be considered genetically alcoholic.
Rats were kept in individual cages at 22° C., with alternative 12 h periods of light and darkness. Besides unlimited access to food, they had ad libitum access to water and 10% (v/v) aqueous alcohol. All experiments were double-blind, and results were analyzed using common statistical methods. As changes in alcohol consumption might be influenced by the eagerness of food and/or water intake, both the consumption of food and of water were measured and analyzed. However, experimental changes in the consumptions of both food and water were not significant. In each experiment the following three periods of time were considered:
a) A reference period, consisting of the three days previous to treatment. The measured consumption values were used as reference for comparison purposes.
b) A treatment period, consisting of the three days during which aqueous solutions of the tested compounds (obtained from SIGMA) were intra-gastrically administered, always at the same time of the day. Polyamines were administered as aqueous solutions of their corresponding fully-neutralized hydrochlorides, at concentration of 100 mg of the free-amine per 100 ml of water, when doses of 2 mg of amine per kg of rat; and at concentration of 1000 mg/100 ml, When doses of 20 mg/kg. Dansyl derivatives of polyamines were administered as aqueous suspensions of 100 mg of derivative per 100 ml of water, when doses of 4 mg of free-amine per kg of rat.
c) A post-treatment period, consisting of the three days immediate after the treatment period, during which measurement were taken in order to establish the duration of the effect and the reversibility of the changes.
Table 1 summarizes the average results from nine experiments, each one carried out with a set of 8 rats, where several compounds at different doses were used, and measurements of alcohol consumption were done at 6 h after the beginning of the treatment period, and at 6 h after the beginning of the post-treatment period. Figures in the table are differences in 10% (v/v) ethanol consumption between a given consumption during the reference period and the corresponding consumption during the treatment (or post-treatment) period, expressed a percentage of the consumption during the reference period (i.e. divided by this and multiplied by 100). As indicated by the figures, during treatment a significant reduction occurred in all cases; and during post-treatment a significant reduction occurred in all cases but two (those marked “ns”=non significant). Results in the table also indicate that there is a dose-effect relationship in the reduction of alcohol consumption during the treatment period.

[3] = dose 2 mg/kg, ns = non significant
[4] = dose 20 mg/kg, ns = non significant

Compound	Acetaldehyde concentration in blood ([1]; 0.5 h after i.p. 2.76 g/kg ethanol)	Acetaldehyde concentration in blood ([1]; 2 h after i.p. 2.76 g/kg ethanol)	Reduction percentage in the consumption of alcohol (10% v/v), treat. ([2]; dose 4 mg/kg intra-gastric)	Reduction percentage in the consumption of alcohol (10% v/v), post-treat. ([2]; dose 4 mg/kg)	Reduction percentage in the consumption of alcohol (10% v/v), treat. ([2]; dose 2 mg/kg intra-gastric)	Reduction percentage in the consumption of alcohol (10% v/v), post-treat. [2, 3]	Reduction percentage in the consumption of alcohol (10% v/v), treat. ([2]; dose 20 mg/kg intra-gastric)	Reduction percentage in the consumption of alcohol (10% v/v), post-treat. [2, 4]
dansyl spermidine	150 ± 5 μg/100 ml	40 ± 9 μg/100 ml	29%	19%				
NCCCCNCCCN [spermidine]					25%	17%	29%	ns
NCCCNCCCCNCCCN [spermine]					27%	29%	42%	12%
dansyl putrescine			23%	22%				
NCCCN [1,3-propanediamine]							27%	12%
NCCCCN [putrescine]					13%	ns	28%	13%
